Measured values taken from US10350177B2, “Antibacterial S-heterosubstituted disulfides” (priority 2007, dated 2019).
Converted amounts (≈) assume the structure as drawn.

Assays:
Format in all cases: cell-based
[1] = test system: Staphylococcus aureus (ATCC-849); assay: MIC by agar dilution against Staphylococcus aureus; conditions: for MIC: ATCC849
[2] = test system: Live Vaccine Strain of Francisella tularensis; assay: microbe, parasite or virus in culture
[3] = test system: Methicillin Resistant Staphylococcus aureus (ATCC-919); assay: MIC by agar dilution against methicillin-resistant Staphylococcus aureus; conditions: for MIC: ATCC 919 / MRSA

In the case of CN(C)SSN(C)C [XVI], the MIC [1] is reported as 0.25 µg/mL (≈ 1.64 µM), the MIC [2] is reported as 8 µg/mL (≈ 52.5 µM) and the MIC [3] is reported as 0.5 µg/mL (≈ 3.28 µM).

For CCCNSSNCCC [VI], the MIC [1] was 8 µg/mL (≈ 44.4 µM), the MIC [2] was 16 µg/mL (≈ 88.7 µM) and the MIC [3] was 4 µg/mL (≈ 22.2 µM).

For CC(C)NSSNC(C)C [VII], the MIC [1] was 32 µg/mL (≈ 177 µM), the MIC [2] was 2 µg/mL (≈ 11.1 µM) and the MIC [3] was 32 µg/mL (≈ 177 µM).

With CCCOSSOCCC [I] the MIC [1] was 32 µg/mL (≈ 176 µM), the MIC [2] was 16 µg/mL (≈ 87.8 µM) and the MIC [3] was 32 µg/mL (≈ 176 µM).

Molecule CCN(SSN(C(C)C)C(C)C)C(C)C [XVIII] has an MIC [1] of 2 µg/mL (≈ 7.98 µM), an MIC [2] of 32 µg/mL (≈ 128 µM) and an MIC [3] of 1 µg/mL (≈ 3.99 µM).

CCN(CC)SSN(CC)CC [XVII] gave an MIC [1] of 2 µg/mL (≈ 9.6 µM), an MIC [2] of 16 µg/mL (≈ 76.8 µM) and an MIC [3] of 2 µg/mL (≈ 9.6 µM).

CC(C)OSSOC(C)C [II] showed an MIC [1] of 1 µg/mL (≈ 5.49 µM), an MIC [2] of 4 µg/mL (≈ 21.9 µM) and an MIC [3] of 0.5 µg/mL (≈ 2.74 µM).

For CCCCOSSOCCCC [III], the MIC [1] was 0.25 µg/mL (≈ 1.19 µM), the MIC [2] was 4 µg/mL (≈ 19 µM) and the MIC [3] was 8 µg/mL (≈ 38 µM).

With CC1(C)S[C@@H]2[C@H](NC(=O)Cc3ccccc3)C(=O)N2[C@H]1C(=O)O [Penicillin G, reference compound] the “MIC S.A.” value [1] was 0.125 µg/mL (≈ 0.374 µM) and the “MIC MRSA” value [3] was 16 µg/mL (≈ 47.8 µM).

In the case of CCCSSSSCCC [XI], the MIC [1] is reported as 32 µg/mL (≈ 149 µM), the MIC [2] is reported as 1 µg/mL (≈ 4.66 µM) and the MIC [3] is reported as 32 µg/mL (≈ 149 µM).

In the case of CCC(C)NSSNC(C)CC (stereo not drawn) [IX], the MIC [1] is reported as 16 µg/mL (≈ 76.8 µM), the MIC [2] is reported as 8 µg/mL (≈ 38.4 µM) and the MIC [3] is reported as 16 µg/mL (≈ 76.8 µM).

C=CCN(CC=C)SSN(CC=C)CC=C [XIX] was tested, and the MIC [1] was 1 µg/mL (≈ 3.9 µM), the MIC [2] was 16 µg/mL (≈ 62.4 µM) and the MIC [3] was 0.5 µg/mL (≈ 1.95 µM).

For CCCCSSSSCCCC [XIII], the MIC [1] was 64 µg/mL (≈ 264 µM), the MIC [2] was 4 µg/mL (≈ 16.5 µM) and the MIC [3] was 32 µg/mL (≈ 132 µM).

With c1ccc(OSSOc2ccccc2)cc1 [V] the MIC [1] was 2 µg/mL (≈ 7.99 µM), the MIC [2] was 1 µg/mL (≈ 3.99 µM) and the MIC [3] was 2 µg/mL (≈ 7.99 µM).

O=C(O)c1cn(C2CC2)c2cc(N3CCNCC3)c(F)cc2c1=O [Ciprofloxacin, reference compound] was tested, and the MIC [2] was 16 µg/mL (≈ 48.3 µM).

Work on CC(C)SSSSC(C)C [XII] yielded an MIC [1] of 32 µg/mL (≈ 149 µM), an MIC [2] of 8 µg/mL (≈ 37.3 µM) and an MIC [3] of 32 µg/mL (≈ 149 µM).

For c1ccc(NSSNc2ccccc2)cc1 [X], the MIC [1] was 4 µg/mL (≈ 16.1 µM), the MIC [2] was 0.5 µg/mL (≈ 2.01 µM) and the MIC [3] was 4 µg/mL (≈ 16.1 µM).

CCCCNSSNCCCC [VIII] showed an MIC [1] of 8 µg/mL (≈ 38.4 µM), an MIC [2] of 4 µg/mL (≈ 19.2 µM) and an MIC [3] of 32 µg/mL (≈ 154 µM).

CCC(C)SSSSC(C)CC (stereo not drawn) [XIV] showed an MIC [1] of 32 µg/mL (≈ 132 µM), an MIC [2] of 16 µg/mL (≈ 66 µM) and an MIC [3] of 64 µg/mL (≈ 264 µM).

Work on c1ccc(SSSSc2ccccc2)cc1 [XV] yielded an MIC [1] of 8 µg/mL (≈ 28.3 µM), an MIC [2] of 2 µg/mL (≈ 7.08 µM) and an MIC [3] of 8 µg/mL (≈ 28.3 µM).

CC(C)CN(CC(C)C)SSN(CC(C)C)CC(C)C [XX] was tested, and the MIC [1] was 16 µg/mL (≈ 49.9 µM), the MIC [2] was 1 µg/mL (≈ 3.12 µM) and the MIC [3] was 16 µg/mL (≈ 49.9 µM).

In the case of CCC(C)OSSOC(C)CC (stereo not drawn) [IV], the MIC [1] is reported as 16 µg/mL (≈ 76.1 µM), the MIC [2] is reported as 16 µg/mL (≈ 76.1 µM) and the MIC [3] is reported as 8 µg/mL (≈ 38 µM).
